Here are results for six compounds from patent publication US4152440A, “Novel derivatives of imidazole, and pharmaceutical compositions containing them” (Hoechst Aktiengesellschaft, priority 1975, dated 1979).

The structures appear in SMILES notation.

Series [1] deals with Oxonat rat. Put plainly: Combined metabolic test in the Oxonat rat (Test 2 of Table 2): uric acid in urine and serum. The settings on record: for Serum - uric acid / Separation of uric acid in the urine, 3rd day / Serum - uric acid, % of control: 3rd day; for Separation of uric acid in the urine, 1st day: 1st day (urine collected before administration, control value). The format is in vivo, male Wistar rats. The procedure: (§1) In this test series, the uricase activity of the rats' livers is inhibited by the application of potassium oxonate (potassium salt of 2,4-dihydroxy-1,3,5-triazine-(6)-carboxylic acid) and thus a gout-like disorder of the purine metabolism is induced. The animals are tested in two different ways.
(§2) 18 hours before the start of the test, the animals were placed separately in metabolism cages. At the same time they were offered unlimited quantities of a 0.5% potassium oxonate solution to drink. On the 1st day of the test, first the urine samples collected were removed (control value) then the substances to be tested were administered in a 0.5% potassium oxonate solution by oesophageal tube into the stomach. The same operation was repeated on the 2nd day of the test. After removal of the 24 hour urine (1st sample after administration of the preparation) the test substances were administered a second time by oesophageal tube. On the 3rd day of the test, the animals were killed and bled, immediately after the urine samples from the preceding 24 hours had been collected (2nd sample after administration of the preparation). Both in the serum obtained and also in the urine samples, the concentration of uric acid was determined enzymatically, using the uricase method (Uricaquant, Boehringer Mannheim), together with a large number of metabolic parameters.
This test series differs from the diuresis test described in 1) only in the method of administration of the uricase inhibitor. The animals drink water throughout the test and are given the potassium oxonate in a special feed mixture consisting of normal standard rat food to which 5% fructose, 3% uric acid, 2% potassium oxonate and 0.1% sweetener have been added. The administration of the preparations to be tested and the analysis of the urine samples from the 1st, 2nd and 3rd days of the test and of the serum samples obtained on the 3rd day of the test were carried out as described in the diuresis test.

Series [2] can be described thus: Acute toxicity (LD50), oral by oesophageal tube. The settings on record: rat, in vivo, rats, mortality within 7 days.
Series [3] deals with Oxonat rat. Kind of series: Diuresis test in the Oxonat rat (Test 1 of Table 2): uric acid in urine and serum. The conditions noted are these: 25 mg/kg oral, n=8, diuresis test (Test 1). In kind it is in vivo, male Wistar rats. As to the method:
The compounds may therefore be useful as therapeutic agents for various disorders of purine metabolism, particularly in treating primary and secondary gout.
as §1, §2

Where [4] appears, read: 50 mg/kg oral, n=8, comparison preparation, own control group (Test 2).
Setting [5] is: 25 mg/kg oral, n=8, combined metabolic test (Test 2).
[6] abbreviates: 25 mg/kg oral, n=8, combined metabolic test (Test 2), * p<0.05 (Duncan), control 8.64± 3.51.

`Oc1ncnc2[nH]ncc12` [Allopurinol, 1 H-Pyrazolo[3,4-]pyrimidine-4-ol, reference compound]: the “Serum - uric acid” value in series [1] (50 mg/kg oral, n=8, comparison preparation (Test 2), own control 6.70± 0.89) was determined as 6.21± 0.76 mg %. In series [1] (setting [4]), the “Separation of uric acid in the urine, 1st day” value (“Separation … 1st day” for short) was found to be 0.99± 0.51; the “Separation of uric acid in the urine, 2nd day” value (shortened to “Separation … 2nd day”) amounted to 2.16± 0.81; the “Separation of uric acid in the urine, 3rd day” value (from here on “Separation … 3rd day”) is recorded as 3.82± 1.59.

As for `Cn1ccnc1Cc1nnn[nH]1` [Example 1, 1-Methyl-2-(5-tetrazolylmethyl)-imidazole], in series [1] (setting [5]), the “Separation … 2nd day” value is 3.30± 2.12; the “Separation … 3rd day” value is reported as 3.32± 1.94; the “Serum - uric acid, % of control” value is given as -44%. Further, in series [1] (setting [6]), the “Serum - uric acid” value was determined as 4.83± 1.69 mg %. In series [2], the LD50 – broadly, the dose expected to kill half of the subjects tested – at 168 h was > 3150 mg/kg.

With `CC(C)n1ccnc1Cc1nn[nH]n1` [Example 3, 1-Isopropyl-2-(5-tetrazolymethyl)-imidazole], in series [1] (setting [5]), the “Separation … 1st day” value stood at 1.68± 0.51; the “Separation … 2nd day” value is 2.25± 0.41; the “Serum - uric acid, % of control” value is given as -19%. Further, the “Serum - uric acid” value in series [1] (setting [6]) was 6.97± 2.07 mg %.

Turning to `c1ccc(Cn2ccnc2Cc2nn[nH]n2)cc1` [Example 5, 1-benzyl-2-(5-tetrazolymethyl)-imidazole], in series [1] (setting [5]), the “Separation … 1st day” value is reported as 1.78± 0.92; the “Separation … 2nd day” value came out at 2.76± 1.21; the “Separation … 3rd day” value is recorded as 2.28± 1.31; the “Serum - uric acid, % of control” value is given as -30%. Moreover, in series [1] (setting [6]), the “Serum - uric acid” value is recorded as 6.05± 1.96 mg %.

For `Cc1ccccc1-n1ccnc1Cc1nnn[nH]1` [Example 11, 1-(o-Tolyl)-2-(5-tetrazolylmethyl)-imidazole], in series [1] (setting [5]), the “Separation … 1st day” value is recorded as 1.12± 0.64; the “Separation … 2nd day” value is 2.24± 0.57; the “Separation … 3rd day” value worked out at 2.33± 1.70; the “Serum - uric acid, % of control” value is on record as -31%. In series [1] (setting [6]), the “Serum - uric acid” value turned out to be 6.00± 1.73 mg %.

With `c1ccc(Cn2ccnc2-c2nnn[nH]2)cc1` [Example 24, 1-Benzyl-2-(5-tetrazolyl)-imidazole], the “Separation … 1st day” value was 2.56± 1.14 in series [3] (1st day (urine collected before administration, control value)) and 1.81± 0.61 in series [1] (setting [5]). Moreover, the “Separation … 2nd day” value in series [3] (2nd day) worked out at 3.97± 1.44; in series [1] (setting [5]), 2.04± 0.80. Further, the “Separation … 3rd day” value in series [3] (3rd day) is recorded as 3.47± 1.31; in series [1] (setting [5]), 2.51± 1.55. The “Serum - uric acid, % of control” value is -31% in series [3] (3rd day) and -30% in series [1] (setting [5]). In addition, the “Serum - uric acid” value is 2.41± 0.98 mg % in series [3] (3rd day, * p<0.05 (Duncan), control 3.50± 1.15) and 6.07± 1.63 mg % in series [1] (setting [6]). Besides, the LD50 at 168 h in series [2] was > 4000 mg/kg.
